The results in this text go back to US9296741B2, “Bromodomain inhibitors” (priority 2012, dated 2016).

Where two headings read alike, the source gives them in different places.

Data set [1] has as its target human BRD4 first bromodomain (BDI_K57-E168) (Homo sapiens (Human), UniProt O60885). The data set can be described thus: TR-FRET bromodomain binding assay, BRD4 first bromodomain. In general terms: In TR-FRET formats the signal depends on donor and acceptor labels being close together.
Data set [2] has as its target human BRD4 second bromodomain (BDII_E352-M457) (Homo sapiens (Human), UniProt O60885). The data set can be described thus: TR-FRET bromodomain binding assay, BRD4 second bromodomain.
Data set [3] concerns breast cancer cell line MX-1. In words: MX-1 cell line proliferation assay. It is filed as cell-based, human. As to conditions: MX-1 cells, 3-day proliferation, Cell Titer Glo, read-out: Cellular proliferation: EC50. In general terms: ATP-based viability assays read luminescence as a measure of living cells.
The nature of data set [4]: Human liver microsome stability assay. The class given is in vitro ADME. As to conditions: human, microsomes, pH 7.4; for half-life at 0.5 μM: both sexes.
The nature of data set [5]: Rat liver microsome stability assay. The class given is in vitro ADME. The settings on record: for half-life at 0.5 μM: rat liver microsomes (male Sprague-Dawley), 0.5 μM test compound, 0.25 mg/mL microsomal protein, pH 7.4, 37° C., read-out: Stability in rat liver microsomes (t1/2 in minutes). (Microsomes from liver hold many membrane-bound enzymes, among them those of drug oxidation.)

A short description of data set [6]: Mouse liver microsome stability assay. It is filed as in vitro ADME. The settings on record: microsomes, pH 7.4; for half-life at 0.5 μM: male, CD1, mouse.
In data set [7] the test system is LPS induced IL-6 production. In words: LPS (lipopolysaccharide) induced IL-6 production mouse assay. It is filed as in vivo. As to conditions: 1 h before LPS, serum IL-6 2 h after LPS; for inhibition in vivo at 3 mg/kg: Mus musculus, read-out: Inhibition of LPS induced IL-6 production in Mice, % inhibition at 3 mg/kg.

Broadly, the Ki is a measure of affinity in units of concentration, obtained from inhibition or displacement. Low values mean a stronger hold on the target, high ones a looser hold on the target. Take `CN(C)S(=O)(=O)c1ccc(OCC2CC2)c(-c2cn(C)c(=O)c3[nH]ccc23)c1` [Example 273, 4-(cyclopropylmethoxy)-N,N-dimethyl-3-(6-methyl-7-oxo-6,7-dihydro-1H-pyrrolo[2,3-c]pyridin-4-yl)benzenesulfonamide]: the values for the Ki in data set [1] and in data set [2] were 1.2 nM and 1.3 nM, respectively. The EC50 in data set [3] (Homo sapiens, MX1, 72 h) is 9 nM. Also, the half-life at 0.5 μM was 9 min in data set [4], 12 min in data set [5] and 8 min in data set [6]. The inhibition in vivo at 3 mg/kg in data set [7] (3 mg/kg oral) turned out to be 47%.

Take `Cn1cc(-c2cc(S(C)(=O)=O)ccc2NC2CCCCC2)c2cc[nH]c2c1=O` [Example 147, 4-[2-(cyclohexylamino)-5-(methylsulfonyl)phenyl]-6-methyl-1,6-dihydro-7H-pyrrolo[2,3-c]pyridin-7-one]: the Ki was found to be 2.1 nM in data set [1] and 1.1 nM in data set [2]. For the same molecule, in data set [3] (Homo sapiens, MX1, 72 h), the EC50 is 14.8 nM. Also, the half-life at 0.5 μM in data set [4] amounted to 11 min; in data set [5], 8 min; in data set [6], 32 min. Further, the inhibition in vivo at 3 mg/kg in data set [7] (3 mg/kg oral) came to 61%.

In the case of `Cn1cc(-c2cc(S(C)(=O)=O)ccc2OC2CCOC2)c2cc[nH]c2c1=O` (stereo not shown) [Example 205, 6-methyl-4-[5-(methylsulfonyl)-2-(tetrahydrofuran-3-yloxy)phenyl]-1,6-dihydro-7H-pyrrolo[2,3-c]pyridin-7-one], the Ki came out at 6.2 nM in data set [1] and 10.2 nM in data set [2]. In addition, the EC50 in data set [3] (Homo sapiens, MX1, 72 h) came to 39.1 nM. Besides, the half-life at 0.5 μM in data set [4] was over 120 min; in data set [5] it was 81 min; in data set [6], 118 min. Besides, in data set [7] (3 mg/kg oral), the inhibition in vivo at 3 mg/kg came out at 48%.

For the molecule `Cn1cc(-c2cc(CS(C)(=O)=O)ccc2Oc2ccc(F)cc2F)c2cn[nH]c2c1=O` [Example 321, 4-{2-(2,4-difluorophenoxy)-5-[(methylsulfonyl)methyl]phenyl}-6-methyl-1,6-dihydro-7H-pyrazolo[3,4-c]pyridin-7-one], the values for the Ki in data set [1] and in data set [2] were 33.4 nM and 32.1 nM, respectively. For the same molecule, in data set [3] (Homo sapiens, MX1, 72 h), the EC50 turned out to be 34.4 nM. The half-life at 0.5 μM was over 120 min in data set [4], 103 min in data set [5] and over 120 min in data set [6]. The inhibition in vivo at 3 mg/kg in data set [7] (3 mg/kg oral) came out at 63%.

Regarding `Cn1cc(-c2cc(S(C)(=O)=O)cnc2Oc2ccc(F)cc2F)c2cc[nH]c2c1=O` [Example 288, 4-[2-(2,4-difluorophenoxy)-5-(methylsulfonyl)pyridin-3-yl]-6-methyl-1,6-dihydro-7H-pyrrolo[2,3-c]pyridin-7-one], the Ki is 71.9 nM in data set [1] and 53.9 nM in data set [2]. In addition, the EC50 in data set [3] (Homo sapiens, MX1, 72 h) was 173 nM. For the same molecule, the half-life at 0.5 μM was 85 min in data set [4], over 120 min in data set [5] and over 120 min in data set [6]. For the same molecule, the inhibition in vivo at 3 mg/kg in data set [7] (3 mg/kg oral) amounted to 60%.

For `Cn1cc(-c2cc(S(C)(=O)=O)ccc2Oc2ccc3ncccc3c2)c2cc[nH]c2c1=O` [Example 162, 6-methyl-4-[5-(methylsulfonyl)-2-(quinolin-6-yloxy)phenyl]-1,6-dihydro-7H-pyrrolo[2,3-c]pyridin-7-one], the Ki in data set [1] came to 11.1 nM; in data set [2], 4.6 nM. Also, the EC50 in data set [3] (Homo sapiens, MX1, 72 h) amounted to 127 nM. Moreover, the half-life at 0.5 μM in data set [4] came out at 96 min; in data set [5], 41 min; in data set [6], 11 min. For the same molecule, the inhibition in vivo at 3 mg/kg in data set [7] (3 mg/kg oral) amounted to 41%.

Regarding `Cn1cc(-c2cc(S(N)(=O)=O)cnc2OCC2CC2)c2cc[nH]c2c1=O` [Example 207, 6-(cyclopropylmethoxy)-5-(6-methyl-7-oxo-6,7-dihydro-1H-pyrrolo[2,3-c]pyridin-4-yl)pyridine-3-sulfonamide], the Ki in data set [1] was 3.1 nM; in data set [2] it was 1.8 nM. Besides, in data set [3] (Homo sapiens, MX1, 72 h), the EC50 was determined as 25.1 nM. In addition, the values for the half-life at 0.5 μM in data set [4], in data set [5] and in data set [6] were 102 min, 78 min and 100 min, respectively. For the same molecule, in data set [7] (3 mg/kg oral), the inhibition in vivo at 3 mg/kg was found to be 62%.

Consider `Cn1cc(-c2cc(S(=O)(=O)N3CCOCC3)ccc2OCC2CC2)c2cc[nH]c2c1=O` [Example 286, 4-[2-(cyclopropylmethoxy)-5-(morpholin-4-ylsulfonyl)phenyl]-6-methyl-1,6-dihydro-7H-pyrrolo[2,3-c]pyridin-7-one], for which the Ki in data set [1] stood at 12.1 nM; in data set [2], 5.4 nM. Moreover, the EC50 in data set [3] (Homo sapiens, MX1, 72 h) was 74.6 nM. The half-life at 0.5 μM in data set [4] worked out at 10 min; in data set [5], 19 min; in data set [6], 11 min. The inhibition in vivo at 3 mg/kg in data set [7] (3 mg/kg oral) stood at 57%.

As for `Cn1nc(-c2cc(NS(C)(=O)=O)ccc2Oc2ccccc2)c2cc[nH]c2c1=O` [Example 80, N-[3-(6-methyl-7-oxo-6,7-dihydro-1H-pyrrolo[2,3-d]pyridazin-4-yl)-4-phenoxyphenyl]methanesulfonamide], the Ki in data set [1] was determined as 9.1 nM; in data set [2], 6.1 nM. In addition, the EC50 in data set [3] (Homo sapiens, MX1, 72 h) turned out to be 62 nM. Moreover, the half-life at 0.5 μM in data set [4] was 62 min; in data set [5], 2 min; in data set [6] it was 31 min. Besides, in data set [7] (30 mg/kg oral), the “Inhibition of LPS induced IL-6 production in Mice, % inhibition at 30 mg/kg” value turned out to be 69% at 30 mg/kg.

Turning to `CCS(=O)(=O)c1ccc(N2CCCC2)c(-c2cn(C)c(=O)c3[nH]ccc23)c1` [Example 330, 4-[5-(ethylsulfonyl)-2-(pyrrolidin-1-yl)phenyl]-6-methyl-1,6-dihydro-7H-pyrrolo[2,3-c]pyridin-7-one], the Ki in data set [1] was found to be 50.9 nM; in data set [2], 4.6 nM. Moreover, in data set [3] (Homo sapiens, MX1, 72 h), the EC50 was 30.6 nM. In addition, the half-life at 0.5 μM is 29.9 min in data set [4], 12 min in data set [5] and 28 min in data set [6]. Moreover, the inhibition in vivo at 3 mg/kg in data set [7] (3 mg/kg oral) stood at 45%.

For the molecule `CCS(=O)(=O)c1ccc(OC2CCC(C)(O)CC2)c(-c2cn(C)c(=O)c3[nH]ccc23)c1` (stereo not drawn) [Example 212, 4-{5-(ethylsulfonyl)-2-[(trans-4-hydroxy-4-methylcyclohexyl)oxy]phenyl}-6-methyl-1,6-dihydro-7H-pyrrolo[2,3-c]pyridin-7-one], the Ki in data set [1] turned out to be 1.8 nM; in data set [2] it was 1.3 nM. For the same molecule, the EC50 in data set [3] was 7.3 nM. Further, the “Stability in human liver microsomes (t1/2 in minutes)” value in data set [4] came to 69 min. Further, in data set [5] (rat, microsomes, pH 7.4), the “Stability in rat liver microsomes (t1/2 in minutes)” value turned out to be 67 min. The “Stability in mouse liver microsomes (t1/2 in minutes)” value in data set [6] (mouse) turned out to be 53 min. In addition, the “Inhibition of LPS induced IL-6 production in Mice, % inhibition at 3 mg/kg” value in data set [7] (3 mg/kg oral) was found to be 47%.

Consider `Cn1cc(-c2cc(S(N)(=O)=O)cnc2Oc2ccc(F)cc2F)c2cc[nH]c2c1=O` [Example 242, 6-(2,4-difluorophenoxy)-5-(6-methyl-7-oxo-6,7-dihydro-1H-pyrrolo[2,3-c]pyridin-4-yl)pyridine-3-sulfonamide], for which the values for the Ki in data set [1] and in data set [2] were 36.5 nM and 5.8 nM, respectively. The EC50 in data set [3] (Homo sapiens, MX1, 72 h) stood at 289 nM. In addition, the half-life at 0.5 μM in data set [4] is over 120 min; in data set [5], 86 min; in data set [6], over 120 min. Further, the inhibition in vivo at 3 mg/kg in data set [7] (3 mg/kg oral) stood at 46%.

Consider `Cn1cc(-c2cc(S(N)(=O)=O)ccc2NCC2CC2)c2cc[nH]c2c1=O` [Example 238, 4-[(cyclopropylmethyl)amino]-3-(6-methyl-7-oxo-6,7-dihydro-1H-pyrrolo[2,3-c]pyridin-4-yl)benzenesulfonamide], for which the Ki in data set [1] amounted to 1.1 nM; in data set [2], 0.78 nM. The EC50 in data set [3] (Homo sapiens, MX1, 72 h) came to 3.3 nM. Also, the half-life at 0.5 μM is 103 min in data set [4], over 120 min in data set [5] and 63 min in data set [6]. Moreover, the inhibition in vivo at 3 mg/kg in data set [7] (3 mg/kg oral) is 69%.

With `Cn1cc(-c2cc(NS(C)(=O)=O)ccc2Oc2ccc(F)c(F)c2)c2cc[nH]c2c1=O` [Example 48, N-[4-(3,4-difluorophenoxy)-3-(6-methyl-7-oxo-6,7-dihydro-1H-pyrrolo[2,3-c]pyridin-4-yl)phenyl]methanesulfonamide], the Ki amounted to 2.3 nM in data set [1] and 3.3 nM in data set [2]. Besides, the EC50 in data set [3] (Homo sapiens, MX1, 72 h) is 23.5 nM. In addition, the figures for the half-life at 0.5 μM in data set [4], in data set [5] and in data set [6] were 37 min, 32 min and 35 min, respectively. In addition, the inhibition in vivo at 3 mg/kg in data set [7] (3 mg/kg oral) came to 62%.

For the molecule `Cn1cc(-c2cc(S(C)(=O)=O)ccc2Oc2ccc(F)cc2F)c2cc(CO)[nH]c2c1=O` [Example 276, 4-[2-(2,4-difluorophenoxy)-5-(methylsulfonyl)phenyl]-2-(hydroxymethyl)-6-methyl-1,6-dihydro-7H-pyrrolo[2,3-c]pyridin-7-one], the figures for the Ki in data set [1] and in data set [2] were 11.4 nM and 17.1 nM, respectively. Moreover, the EC50 in data set [3] (Homo sapiens, MX1, 72 h) stood at 149 nM. In addition, the half-life at 0.5 μM is over 120 min in data set [4], 82 min in data set [5] and 71 min in data set [6]. The inhibition in vivo at 3 mg/kg in data set [7] (3 mg/kg oral) came out at 25%.

Take `CCS(=O)(=O)Nc1ccc(Oc2c(F)cc(F)cc2F)c(-c2cn(C)c(=O)c3[nH]ccc23)c1` [Example 62, N-[3-(6-methyl-7-oxo-6,7-dihydro-1H-pyrrolo[2,3-c]pyridin-4-yl)-4-(2,4,6-trifluorophenoxy)phenyl]ethanesulfonamide]: the Ki is 3 nM in data set [1] and 1.9 nM in data set [2]. In addition, the EC50 in data set [3] (Homo sapiens, MX1, 72 h) turned out to be 7.9 nM. The half-life at 0.5 μM in data set [4] is 64 min; in data set [5], 45 min; in data set [6], 25 min. The inhibition in vivo at 3 mg/kg in data set [7] (3 mg/kg oral) was 67%.
